Results on 2 compounds are retold here after publication PMC9007951, “Systematically evaluating DOTATATE and FDG as PET immuno-imaging tracers of cardiovascular inflammation” (Scientific Reports, 2022).

A short description of series [1]: In vivo PET/CT of cardiac inflammation in infarcted mice. Conditions: female, mouse, heart, iv, 5.55 MBq, total radioactivity, healthy C57Bl/6 mice, tracer circulated 60 min, median, N = 4, read-out: SUVmax heart of control animals. How it is done:
(§1) Myocardial infarction in mice was induced by permanent ligation of the left anterior descending (LAD) coronary artery of female C57Bl/6 mice (N = 18). Briefly, animals were anesthetized with xylazine (10 mg/kg) and ketamine (100 mg/kg) and intubated using an endotracheal intubation kit from Braintree Scientific (Braintree, MA). Left-sided thoracotomy and pericardial incision were performed. A 7-0 Silk suture was used to occlude the LAD. Incisions were closed with a 5-0 Silk suture. Infarcted animals were treated with 0.1 mg/kg of buprenorphine every 12 h and used 3 days after the surgery.
(§2) For the PET/CT experiments, mice were fasted for 12 h before radiotracer injection and anesthetized with xylazine (10 mg/kg) and ketamine (100 mg/kg) through intraperitoneal injection prior to radiotracer administration. Subsequently they were injected via the lateral tail vein with approximately 22.2 MBq of [^18F]F-FDG or 5.55 MBq of [^64Cu]Cu-DOTATATE. Tracers were allowed to circulate for 60 min. Immediately before imaging, mice were placed under 1% isoflurane (BaxterHealthcare, Deerfield, IL), and subsequently imaged on a high resolution (700 µm) Mediso nanoScan PET/CT scanner (Mediso, Budapest, Hungary). CT scan was acquired at 50 kVp and 300 ms exposure per projection. eXIA160 (Binitio, Ontario, Canada) was used as a contrast agent to improve imaging of the vasculature by intravenous administration of 100 μl per mouse 5 min prior to CT acquisition. PET acquisition time was 40 min. Reconstruction was performed using TeraTomo 3D reconstruction engine, for 8 iterations and 6 subsets per iteration for both tracers. The voxel size was isotropic at 0.3 mm. Immediately after the PET/CT scan, animals were euthanized for ex vivo assays.
(§3) Using OsiriX v5.6 software (OsiriX Foundation, Geneva, Switzerland), regions of interest (ROIs) were drawn to determine organ radioactivity concentration. In mice, for healthy and infarcted myocardium, ROIs were traced manually in the apex of the heart in the axial view. For remote myocardium, analysis was performed in myocardium 180° from the infarcted zone. In the mice aorta, sequential ROIs were drawn in the ascending aorta based on consecutive tomographic (CT) slices beginning from the root up to the brachiocephalic branch, merging point with the aortic arch. Voxel counts were converted to maximum standardized uptake values (SUVmax). In rabbits, PET images were fused with time-of-flight bright blood MRI angiography and ROIs were manually drawn on the infrarenal abdominal aorta in TOF images. The slice-by-slice maximum standard uptake values (SUVmax) were averaged across the whole aorta. […]

Series [2] relates to C57Bl/6 mice subjected to myocardial infarction. Described as above. Conditions: tracer circulated 60 min, median. How it is done: as §1, §2, §3
[3] abbreviates: C57Bl/6 mice 3 days after LAD ligation, N = 4 ([^64Cu]Cu-DOTATATE), N = 6 ([^18F]F-FDG).

For the compound `C[C@@H](O)[C@H](NC(=O)[C@@H]1CSSC[C@H](NC(=O)[C@@H](Cc2ccccc2)NC(=O)CN2CCN(CC(=O)O)CCN(CC(=O)O)CCN(CC(=O)O)CC2)C(=O)N[C@@H](Cc2ccc(O)cc2)C(=O)N[C@H](Cc2c[nH]c3ccccc23)C(=O)N[C@@H](CCCCN)C(=O)N[C@@H]([C@@H](C)O)C(=O)N1)C(=O)O` [[^64Cu]Cu-DOTATATE, metal not drawn], in series [1], the SUV at 1 h amounted to 0.6 SUV.
For `OC[C@H]1OC(O)[C@H]([18F])[C@@H](O)[C@@H]1O` (stereo partly shown) [[^18F]F-FDG, [^18F]F-fluorodeoxyglucose], in series [2] (setting [3]), the SUVmax infarcted myocardium came to 4.2 and the “SUVmax remote (non-infarcted) myocardium” value was 2.1. In series [2] (healthy C57Bl/6 mice, N = 4), the “SUVmax heart of control animals” value is 3.4.
